Measurements published in patent US20190022152A1, “MICROBIOME RESPONSE TO AGENTS” (Yeda Research and Development Co., Ltd., priority 2014, published 2019).
Read-outs that look alike come from different tables or passages of the source.

Test system: fecal microbiota
Settings: fecal samples, 11 weeks consumption
Procedure: Illumina sequence reads were mapped to the human microbiome reference genome database of the Human Microbiome Project [www(dot)hmpdacc(dot)org/HMREFG/^32], and to a gut microbial gene catalogue^33 using GEM mapper^58 with the following parameters: • -m 3 -s 0 -q offset-33 -gem-quality-threshold 26
Microbial species abundance was measured as the fraction of reads that mapped to a single species in the database. An EM algorithm adapted from Pathoscope^59 was employed to determine the correct assignment of reads that mapped to more than one species. We considered only species for which at least 10% of the genome was covered (each coverage bin was 10,000-bp long) in at least one of the growth conditions (saccharin, water, or glucose). Reads mapped to the gut microbial gene catalogue were assigned a KEGG^34,35 ID according to the mapping available with the catalogue. Genes were subsequently mapped to KEGG pathways, and only pathways whose gene coverage was above 0.2 were included.

Question: Which “Fold change (week 11/week 0) in relative species abundance” value (Symbol BACT_9, Number 996) does the source give for `OC[C@H]1OC(O)[C@H](O)[C@@H](O)[C@@H]1O` (stereo partly drawn) [Glucose] here?
Answer: 1.24

Question: And the “Fold change (week 11/week 0) in relative species abundance” value (Symbol BACT_49, Number 420)?
Answer: 0.15

Question: What about the “Fold change (week 11/week 0) in relative species abundance” value (Symbol BACT_60, Number 752) of the same molecule?
Answer: 0.88

Question: And the “Fold change (week 11/week 0) in relative species abundance” value (Symbol BACT_65, Number 918)?
Answer: 1.20

Question: What about the “Fold change (week 11/week 0) in relative species abundance” value (Symbol BACT_70, Number 863) of the same molecule?
Answer: 1.58

Question: And the “Fold change (week 11/week 0) in relative species abundance” value (Symbol BACT_85, Number 934)?
Answer: 0.91

Question: And the “Fold change (week 11/week 0) in relative species abundance” value (Symbol BACT_170, Number 883)?
Answer: 0.93

Question: And the “Fold change (week 11/week 0) in relative species abundance” value (Symbol BACT_171, Number 748)?
Answer: 1.24

Question: What about the “Fold change (week 11/week 0) in relative species abundance” value (Symbol BACT_178, Number 921) of the same molecule?
Answer: 1.53

Question: What about the “Fold change (week 11/week 0) in relative species abundance” value (Symbol BACT_181, Number 767) of the same molecule?
Answer: 1.14

Question: And the “Fold change (week 11/week 0) in relative species abundance” value (Symbol BACT_185, Number 633)?
Answer: 5.63

Question: And the “Fold change (week 11/week 0) in relative species abundance” value (Symbol BACT_189, Number 636)?
Answer: 1.66

Question: And the “Fold change (week 11/week 0) in relative species abundance” value (Symbol BACT_192, Number 995)?
Answer: 0.86

Question: What about the “Fold change (week 11/week 0) in relative species abundance” value (Symbol BACT_195, Number 523) of the same molecule?
Answer: 1.15

Question: And the “Fold change (week 11/week 0) in relative species abundance” value (Symbol BACT_225, Number 953)?
Answer: 1.18

Question: What about the “Fold change (week 11/week 0) in relative species abundance” value (Symbol BACT_258, Number 620) of the same molecule?
Answer: 1.13

Question: What about the “Fold change (week 11/week 0) in relative species abundance” value (Symbol BACT_260, Number 1443) of the same molecule?
Answer: 0.94

Question: And the “Fold change (week 11/week 0) in relative species abundance” value (Symbol BACT_300, Number 769)?
Answer: 1.16

Question: And the “Fold change (week 11/week 0) in relative species abundance” value (Symbol BACT_413, Number 847)?
Answer: 1.17

Question: What about the “Fold change (week 11/week 0) in relative species abundance” value (Symbol BACT_419, Number 920) of the same molecule?
Answer: 0.67

Question: What about the “Fold change (week 11/week 0) in relative species abundance” value (Symbol BACT_420, Number 922) of the same molecule?
Answer: 0.87

Question: And the “Fold change (week 11/week 0) in relative species abundance” value (Symbol BACT_424, Number 906)?
Answer: 1.13

Question: What about the “Fold change (week 11/week 0) in relative species abundance” value (Symbol BACT_449, Number 772) of the same molecule?
Answer: 1.13

Question: And the “Fold change (week 11/week 0) in relative species abundance” value (Symbol BACT_463, Number 719)?
Answer: 1.55

Question: And the “Fold change (week 11/week 0) in relative species abundance” value (Symbol BACT_496, Number 765)?
Answer: 0.62

Question: What about the “Fold change (week 11/week 0) in relative species abundance” value (Symbol BACT_499, Number 35) of the same molecule?
Answer: 0.73

Question: What about the “Fold change (week 11/week 0) in relative species abundance” value (Symbol BACT_511, Number 591) of the same molecule?
Answer: 1.55

Question: And the “Fold change (week 11/week 0) in relative species abundance” value (Symbol BACT_535, Number 940)?
Answer: 0.66

Question: And the “Fold change (week 11/week 0) in relative species abundance” value (Symbol BACT_539, Number 117)?
Answer: 0.75

Question: And the “Fold change (week 11/week 0) in relative species abundance” value (Symbol BACT_551, Number 907)?
Answer: 0.73

Question: And the “Fold change (week 11/week 0) in relative species abundance” value (Symbol BACT_572, Number 963)?
Answer: 0.92

Question: And the “Fold change (week 11/week 0) in relative species abundance” value (Symbol BACT_627, Number 886)?
Answer: 0.66

Question: And the “Fold change (week 11/week 0) in relative species abundance” value (Symbol BACT_681, Number 125)?
Answer: 1.55

Question: And the “Fold change (week 11/week 0) in relative species abundance” value (Symbol BACT_722, Number 377)?
Answer: 1.47

Question: What about the “Fold change (week 11/week 0) in relative species abundance” value (Symbol BACT_843, Number 1318) of the same molecule?
Answer: 0.69

Question: What about the “Fold change (week 11/week 0) in relative species abundance” value (Symbol BACT_850, Number 394) of the same molecule?
Answer: 1.86

Question: And the “Fold change (week 11/week 0) in relative species abundance” value (Symbol BACT_852, Number 766)?
Answer: 0.88

Question: What about the “Fold change (week 11/week 0) in relative species abundance” value (Symbol BACT_855, Number 835) of the same molecule?
Answer: 1.23

Question: What about the “Fold change (week 11/week 0) in relative species abundance” value (Symbol BACT_890, Number 163) of the same molecule?
Answer: 0.74

Question: And the “Fold change (week 11/week 0) in relative species abundance” value (Symbol BACT_913, Number 904)?
Answer: 1.17

Question: What about the “Fold change (week 11/week 0) in relative species abundance” value (Symbol BACT_915, Number 1315) of the same molecule?
Answer: 1.23

Question: And the “Fold change (week 11/week 0) in relative species abundance” value (Symbol BACT_1001, Number 933)?
Answer: 0.79

Question: And the “Fold change (week 11/week 0) in relative species abundance” value (Symbol BACT_1083, Number 1008)?
Answer: 2.25

Question: What about the “Fold change (week 11/week 0) in relative species abundance” value (Symbol BACT_1131, Number 942) of the same molecule?
Answer: 0.79

Question: What about the “Fold change (week 11/week 0) in relative species abundance” value (Symbol BACT_1311, Number 1259) of the same molecule?
Answer: 1.16

Question: What about the “Fold change (week 11/week 0) in relative species abundance” value (Symbol BACT_1321, Number 1255) of the same molecule?
Answer: 1.16

Question: And the “Fold change (week 11/week 0) in relative species abundance” value (Symbol BACT_1322, Number 1396)?
Answer: 1.50

Question: And the “Fold change (week 11/week 0) in relative species abundance” value (Symbol BACT_1324, Number 1264)?
Answer: 2.61

Question: And the “Fold change (week 11/week 0) in relative species abundance” value (Symbol BACT_1348, Number 1311)?
Answer: 1.15

Question: And the “Fold change (week 11/week 0) in relative species abundance” value (Symbol BACT_1378, Number 1375)?
Answer: 2.83

Question: And the “Fold change (week 11/week 0) in relative species abundance” value (Symbol BACT_1427, Number 1266)?
Answer: 1.13

Question: What about the “Fold change (week 11/week 0) in relative species abundance” value (Symbol BACT_1442, Number 1400) of the same molecule?
Answer: 1.75

Question: And the “Fold change (week 11/week 0) in relative species abundance” value (Symbol BACT_1457, Number 1337)?
Answer: 0.82

Question: What about the “Fold change (week 11/week 0) in relative species abundance” value (Symbol BACT_1501, Number 1331) of the same molecule?
Answer: 0.79

Question: And the “Fold change (week 11/week 0) in relative species abundance” value (Symbol BACT_1526, Number 1227)?
Answer: 1.58

Question: What about the “Fold change (week 11/week 0) in relative species abundance” value (Symbol BACT_1555, Number 1469) of the same molecule?
Answer: 0.62

Question: And the “Fold change (week 11/week 0) in relative species abundance” value (Symbol BACT_1569, Number 1462)?
Answer: 0.78

Question: What about the “Fold change (week 11/week 0) in relative species abundance” value (Symbol BACT_1595, Number 1533) of the same molecule?
Answer: 1.13

Question: What about the “Fold change (week 11/week 0) in relative species abundance” value (Symbol BACT_1656, Number 1503) of the same molecule?
Answer: 1.55

Question: And the “Fold change (week 11/week 0) in relative species abundance” value (Symbol BACT_3004, Number 5797)?
Answer: 1.54

Question: What about the “Fold change (week 11/week 0) in relative species abundance” value (Symbol BACT_3005, Number 5799) of the same molecule?
Answer: 1.56

Question: And the “Fold change (week 11/week 0) in relative species abundance” value (Symbol BACT_3007, Number 5798)?
Answer: 0.94

Question: And the “Fold change (week 11/week 0) in relative species abundance” value (Symbol BACT_3024, Number 5841)?
Answer: 0.72

Question: And the “Fold change (week 11/week 0) in relative species abundance” value (Symbol BACT_3045, Number 5818)?
Answer: 1.19

Question: What about the “Fold change (week 11/week 0) in relative species abundance” value (Symbol BACT_3058, Number 5816) of the same molecule?
Answer: 1.54

Question: What about the “Fold change (week 11/week 0) in relative species abundance” value (Symbol BACT_3060, Number 5821) of the same molecule?
Answer: 1.62

Question: What about the “Fold change (week 11/week 0) in relative species abundance” value (Symbol BACT_3062, Number 5800) of the same molecule?
Answer: 1.49

Question: And the “Fold change (week 11/week 0) in relative species abundance” value (Symbol BACT_3085, Number 5842)?
Answer: 1.90

Question: What about the “Fold change (week 11/week 0) in relative species abundance” value (Symbol BACT_4040, Number 5769) of the same molecule?
Answer: 16.24

Question: And the “Fold change (week 11/week 0) in relative species abundance” value (Symbol BACT_4042, Number 5770)?
Answer: 0.28

Question: What about the “Fold change (week 11/week 0) in relative species abundance” value (Symbol EUKY_222, Number 1954) of the same molecule?
Answer: 1.60

Question: And the “Fold change (week 11/week 0) in relative species abundance” value (Symbol V1RL3522, Number 3522)?
Answer: 2.13
